From patent US7176224B2, “Oxazolyl-aryloxyacetic acid derivatives and their use as PPAR agonists” (Eli Lilly and Company, priority 2000, dated 2007)

Legend:
huPPARα [1] = test: Cotransfection assay in CV-1 cells, luciferase reporter; format: cell-based, human; settings: GAL4 chimeric system, relative to PPARα agonist reference molecule
Experimental: (§1) […] binding (ABCD binding) was carried out using SPA technology with PPAR receptors. Tritium-labeled PPARα and PPARγ agonists were used as radioligands for generating displacement curves and IC50 values with compounds of the invention. Cotransfection assays were carried out in CV-1 cells. The reporter plasmid contained an acylCoA oxidase (AOX) PPRE and TK promoter upstream of the luciferase reporter cDNA. Appropriate PPARs and RXRα were constitutively expressed using plasmids containing the CMV promoter. For PPARα and PPARγ, interference by endogenous PPARγ in CV-1 cells was an issue. In order to eliminate such interference, a GAL4 chimeric system was used in which the DNA binding domain of the transfected PPAR was replaced by that of GAL4, and the GAL4 response element was utilized in place of the AOX PPRE. Cotransfection efficacy was determined relative to PPARα agonist and PPARβ agonist reference molecules. Efficacies were determined by computer fit to a concentration-response curve, or in some cases at a single high concentration of agonist (10 μM). For binding or cotransfection studies with receptors other than PPARs, similar assays were carried out using appropriate ligands, receptors, reporter constructs, etc., for that particular receptor.
(§2) These studies were carried out to evaluate the ability of compounds of the invention to bind to and/or activate various nuclear transcription factors, particularly huPPARα (“hu” indicates “human”) and huPPARγ. These studies provide in vitro data concerning efficacy and selectivity of compounds of the invention. Furthermore, binding and cotransfection data for compounds of the invention were compared with corresponding data for marketed compounds that act on either huPPARα or huPPARγ.

huPPARγ [2] = biological target: T1, huPPARγ (Homo sapiens, UniProt P37231); test: DNA-dependent binding (ABCD binding), SPA, radioligand displacement; settings: tritium-labeled PPARγ agonist radioligand
T1 sequence (P37231 1-505): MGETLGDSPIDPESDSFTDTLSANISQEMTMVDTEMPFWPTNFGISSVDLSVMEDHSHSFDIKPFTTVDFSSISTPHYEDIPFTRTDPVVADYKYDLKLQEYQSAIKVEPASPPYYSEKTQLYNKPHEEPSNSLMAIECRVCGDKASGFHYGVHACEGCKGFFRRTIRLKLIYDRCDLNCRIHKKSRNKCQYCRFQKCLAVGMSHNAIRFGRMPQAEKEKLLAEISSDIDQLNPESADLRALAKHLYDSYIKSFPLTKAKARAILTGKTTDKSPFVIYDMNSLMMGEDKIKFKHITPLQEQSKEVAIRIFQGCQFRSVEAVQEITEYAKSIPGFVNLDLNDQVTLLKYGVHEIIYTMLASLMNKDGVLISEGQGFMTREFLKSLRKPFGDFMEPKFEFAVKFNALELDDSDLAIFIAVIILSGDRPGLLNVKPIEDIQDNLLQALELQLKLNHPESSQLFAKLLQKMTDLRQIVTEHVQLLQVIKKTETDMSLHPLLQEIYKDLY
T1 sequence (P19793 1-462 partner): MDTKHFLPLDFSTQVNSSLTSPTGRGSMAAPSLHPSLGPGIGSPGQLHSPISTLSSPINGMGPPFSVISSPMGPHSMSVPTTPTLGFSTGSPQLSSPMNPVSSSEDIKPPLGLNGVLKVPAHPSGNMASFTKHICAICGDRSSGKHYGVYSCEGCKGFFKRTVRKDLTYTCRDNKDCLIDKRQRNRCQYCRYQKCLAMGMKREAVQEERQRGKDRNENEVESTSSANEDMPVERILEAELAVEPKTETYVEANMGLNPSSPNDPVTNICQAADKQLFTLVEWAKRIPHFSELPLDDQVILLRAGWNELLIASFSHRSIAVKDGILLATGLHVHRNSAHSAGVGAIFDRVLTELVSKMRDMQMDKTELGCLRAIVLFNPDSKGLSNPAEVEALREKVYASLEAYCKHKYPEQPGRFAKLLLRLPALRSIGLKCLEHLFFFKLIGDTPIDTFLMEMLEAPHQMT
Experimental: as §1, with “For PPARα and PPARγ, interference by endogenous PPARγ in CV-1 cells was an issue.” left out
as §2

huPPARα [3] = biological target: T2, huPPARα (Homo sapiens, UniProt Q07869); test: as above; settings: tritium-labeled PPARα agonist radioligand
T2 sequence (Q07869 1-468): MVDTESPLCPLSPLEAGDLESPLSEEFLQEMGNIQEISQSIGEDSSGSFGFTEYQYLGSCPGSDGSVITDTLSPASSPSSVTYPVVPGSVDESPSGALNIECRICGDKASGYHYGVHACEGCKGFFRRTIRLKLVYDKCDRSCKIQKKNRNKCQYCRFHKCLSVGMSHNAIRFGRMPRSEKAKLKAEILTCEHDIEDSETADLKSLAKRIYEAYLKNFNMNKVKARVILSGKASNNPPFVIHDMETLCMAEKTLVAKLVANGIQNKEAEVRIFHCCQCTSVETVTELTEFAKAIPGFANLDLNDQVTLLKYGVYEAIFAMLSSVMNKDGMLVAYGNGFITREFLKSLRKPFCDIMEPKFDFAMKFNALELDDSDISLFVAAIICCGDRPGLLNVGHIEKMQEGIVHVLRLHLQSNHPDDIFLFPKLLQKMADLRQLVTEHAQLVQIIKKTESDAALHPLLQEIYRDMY
T2 sequence (P19793 1-462 partner): T1 sequence (P19793 1-462 partner)
Experimental: as §1, with “For PPARα and PPARγ, interference by endogenous PPARγ in CV-1 cells was an issue.” left out
as §2

huPPARγ [4] = test: Cotransfection assay in CV-1 cells, luciferase reporter; format: cell-based, human; settings: GAL4 chimeric system, relative to agonist reference molecule
Experimental: as §1, with “Tritium-labeled PPARα and PPARγ agonists were used as radioligands for generating displacement curves and IC50 values with compounds of the invention.” left out, “For PPARα and PPARγ, interference by endogenous PPARγ in CV-1 cells was an issue.” left out, “Cotransfection efficacy was determined relative to PPARα agonist and PPARβ agonist reference molecules.” left out
as §2

SMILES: COc1cc(CC(C)(Oc2ccccc2)C(=O)O)ccc1OCCc1nc(-c2ccc(-c3ccccc3)cc2)oc1C (centres unmarked) [Example 7, 3-{4-[2-(2-Biphenyl-4-yl-5-methyloxazol-4-yl)ethoxy]-3-methoxyphenyl}-2-methyl-2-phenoxypropionic acid]
- huPPARα CTF Efficacy (huPPARα [1]): 60%
- IC50 (huPPARγ [2]): 174 nM
- IC50 (huPPARα [3]): 4120 nM
- huPPARγ CTF Efficacy (huPPARγ [4]): 93%

SMILES: COc1cc(CC(C)(Oc2ccccc2)C(=O)O)ccc1OCCc1nc(-c2cccc(-c3ccccc3)c2)oc1C (centres unmarked) [Example 8, 3-{4-[2-(2-Biphenyl-3-yl-5-methyloxazol-4-yl)ethoxy]-3-methoxyphenyl}-2-methyl-2-phenoxypropionic acid]
- huPPARα CTF Efficacy (huPPARα [1]): 45%
- IC50 (huPPARγ [2]): 41 nM
- IC50 (huPPARα [3]): 605 nM
- huPPARγ CTF Efficacy (huPPARγ [4]): 91%

SMILES: Cc1oc(-c2ccc(-c3ccccc3)cc2)nc1CCOc1ccc(CC(C)(Oc2ccc(C(C)(C)C)cc2)C(=O)O)cc1 (centres unmarked) [Example 15, 3-{4-[2-(2-Biphenyl-4-yl-5-methyl-oxazol-4-yl)-ethoxy]-phenyl}-2-methyl-2-(4-tert-butylphenoxy)-propionic acid]
- huPPARα CTF Efficacy (huPPARα [1]): 96%
- IC50 (huPPARγ [2]): 107 nM
- IC50 (huPPARα [3]): 196 nM
- huPPARγ CTF Efficacy (huPPARγ [4]): 90%

SMILES: Cc1oc(-c2ccc(-c3cccs3)cc2)nc1CCOc1ccc(CC(C)(Oc2ccc(C(C)(C)C)cc2)C(=O)O)cc1 (centres unmarked) [Example 17, 2-Methyl-3-(4-{2-[5-methyl-2-(4-thiophen-2-yl-phenyl)-oxazol-4-yl]-ethoxy}-phenyl)-2-(4-tert-butylphenoxy)-propionic acid]
- huPPARα CTF Efficacy (huPPARα [1]): 116%
- IC50 (huPPARγ [2]): 119 nM
- IC50 (huPPARα [3]): 186 nM
- huPPARγ CTF Efficacy (huPPARγ [4]): 80%

SMILES: Cc1oc(-c2ccc(-c3cccs3)cc2)nc1CCOc1ccc(CC(C)(Oc2cccc(F)c2)C(=O)O)cc1 (centres unmarked) [Example 22, 2-(3-Fluoro-phenoxy)-2-methyl-3-(4-{2-[5-methyl-2-(4-thiophen-2-yl-phenyl)-oxazol-4-yl]-ethoxy}-phenyl)-propionic acid]
- huPPARα CTF Efficacy (huPPARα [1]): 63%
- IC50 (huPPARγ [2]): 78 nM
- IC50 (huPPARα [3]): 260 nM
- huPPARγ CTF Efficacy (huPPARγ [4]): 100%

SMILES: Cc1oc(-c2cccc(-c3cccs3)c2)nc1CCOc1ccc(CC(C)(Oc2ccc(Cl)cc2)C(=O)O)cc1 (centres unmarked) [Example 26, 2-(4-Chlorophenoxy)-2-methyl-3-(4-{2-[5-methyl-2-(3-thiophen-2-yl-phenyl)-oxazol-4-yl]-ethoxy}-phenyl)-propionic acid]
- huPPARα CTF Efficacy (huPPARα [1]): 54%
- IC50 (huPPARγ [2]): 55 nM
- IC50 (huPPARα [3]): 159 nM
- huPPARγ CTF Efficacy (huPPARγ [4]): 100%

SMILES: Cc1ccc(OC(C)(Cc2ccc(OCCc3nc(-c4ccc(-c5ccccc5)cc4)oc3C)cc2)C(=O)O)cc1C (centres unmarked) [Example 34, 3-{4-[2-(2-Biphenyl-4-yl-5-methyl-oxazol-4-yl)-ethoxy]-phenyl}-2-(3,4-dimethyl-phenoxy)-2-methyl-propionic acid]
- huPPARα CTF Efficacy (huPPARα [1]): 61%
- IC50 (huPPARγ [2]): 40 nM
- IC50 (huPPARα [3]): 165 nM
- huPPARγ CTF Efficacy (huPPARγ [4]): 95%

SMILES: CCC(Cc1ccc(OCCc2nc(-c3cccc(-c4ccccc4)c3)oc2C)cc1)(Oc1ccccc1)C(=O)O (centres unmarked) [Example 41, 2-{4-[2-(2-Biphenyl-3-yl-5-methyl-oxazol-4-yl)-ethoxy]-benzyl}-2-phenoxy-butyric acid]
- huPPARα CTF Efficacy (huPPARα [1]): 44%
- IC50 (huPPARγ [2]): 45 nM
- IC50 (huPPARα [3]): 402 nM
- huPPARγ CTF Efficacy (huPPARγ [4]): 108%

SMILES: CCC(Cc1ccc(OCCc2nc(-c3cccc(-c4cccs4)c3)oc2C)cc1)(Oc1ccccc1)C(=O)O (centres unmarked) [Example 42, 2-(4-{2-[5-Methyl-2-(3-thiophen-2-yl-phenyl)-oxazol-4-yl]-ethoxy}-benzyl)-2-phenoxy-butyric acid]
- huPPARα CTF Efficacy (huPPARα [1]): 49%
- IC50 (huPPARγ [2]): 56 nM
- IC50 (huPPARα [3]): 310 nM
- huPPARγ CTF Efficacy (huPPARγ [4]): 105%

SMILES: Cc1cccc(OC(C)(Cc2ccc(OCCc3nc(-c4cccc(-c5ccccc5)c4)oc3C)cc2)C(=O)O)c1 (centres unmarked) [Example 48, 3-{4-[2-(2-Biphenyl-3-yl-5-methyl-oxazol-4-yl)-ethoxy]-phenyl}-2-methyl-2-m-tolyloxy-propionic acid]
- huPPARα CTF Efficacy (huPPARα [1]): 45%
- IC50 (huPPARγ [2]): 54 nM
- IC50 (huPPARα [3]): 182 nM
- huPPARγ CTF Efficacy (huPPARγ [4]): 145%

SMILES: Cc1oc(-c2cccc(-c3ccccc3)c2)nc1CCOc1ccc(CC(C)(Oc2ccc(F)cc2)C(=O)O)cc1 (centres unmarked) [Example 51, 3-{4-[2-(2-Biphenyl-3-yl-5-methyl-oxazol-4-yl)-ethoxy]-phenyl}-2-(4-fluoro-phenoxy)-2-methyl-propionic acid]
- huPPARα CTF Efficacy (huPPARα [1]): 43%
- IC50 (huPPARγ [2]): 56 nM
- IC50 (huPPARα [3]): 203 nM
- huPPARγ CTF Efficacy (huPPARγ [4]): 160%

SMILES: CC(C)(Oc1ccc(C(=O)c2ccc(Cl)cc2)cc1)C(=O)O [Fenofibric acid, reference compound]
- huPPARα CTF Efficacy (huPPARα [1]): 16%
- huPPARγ CTF Efficacy (huPPARγ [4]): 0%

SMILES: Cc1c(C)c2c(c(C)c1O)CCC(C)(COc1ccc(CC3SC(=O)NC3=O)cc1)O2 (centres unmarked) [Troglitazone, reference compound]
- huPPARα CTF Efficacy (huPPARα [1]): 0%
